Measurements: patent publication US20080242688A1, “Method 741” (ASTRAZENECA AB, priority 2007, published 2008)

Tests used:
Pgp transporter = target: T1, Pgp transporter (Homo sapiens, UniProt P08183); assay: Digoxin transport, cell-based assay; assay type: in vitro ADME
T1 construct: host or cells: unnamed cells
Text: The 50% bioavailability of AZD0328 in human was conservatively selected based on the observations from rat, dog and monkey.

[1] = target: T2, human recombinant 5-HT3A/B receptors (Homo sapiens, UniProt O95264+P46098); assay: Functional assays at recombinant human receptors; assay type: biochemical; conditions: recombinant human receptors in vitro
T2 construct: expressed in transfected cells

ferrets = assay: Emetic potential in ferrets; assay type: in vivo; conditions: ferret
Description: The emetic potential of AZD0328 was investigated in ferrets (n=6-8/dose) following a single oral dose of vehicle or AZD0328 (Table 3). Videotape recordings were used for observation of the animals up to 4 h after dose for quantitation and timing of emetic behaviours, characterised as retches (abdominal contractions), vomits and wet-dog shakes.

mice = assay: Novel Object Recognition (NOR); assay type: in vivo, mouse; conditions: 0.00178 mg/kg sc
Text: We have now discovered that much lower doses of AZD0328 that provide much lower plasma concentrations, can improve performance of cognitive tasks in mice, rats, and monkeys. AZD0328 at low doses increased novel object recognition in mice. In this procedure, mice were habituated to a chamber in which they were then allowed to “sample” two objects before being removed from the chamber. After a delay during which one of the objects was replaced with a novel object, the mice were returned to the chamber for testing. If the delay was brief, mice spent more time exploring the novel object than the familiar object, which is thought to indicate that the mice “recognize” […], a measure of episodic memory.
AZD0328 increased novel object recognition in mice (Table 2). In this procedure, mice were habituated to a chamber in which they were then allowed to “sample” two objects before being removed from the chamber. After a delay during which one of the objects was replaced with a novel object, the mice were returned to the chamber for testing. If the delay was brief, mice spent more time exploring the novel object than the familiar object, which is thought to indicate that the mice “recognize” that the novel object is novel.

Mouse lymphoma = Mouse lymphoma test; assay type: cell-based
Text: The genotoxic potential of AZD0328 has been evaluated in the Ames test and in the Mouse lymphoma test. AZD0328 was not mutagenic in either of these tests.

α7 receptor = α7 receptor (Rattus norvegicus, UniProt Q05941); assay: FFX hippocampal slice fEPSP, LTP; assay type: cell-based; conditions: 10 μM
Text: In membranes prepared either from cultured, human recombinant α7 receptor-expressing, human embryonic kidney cells α7-HEK) or from rat brain hippocampus, AZD0328 competed with binding of an iodinated form of the high-affinity, selective α7 receptor antagonist snake toxin, [^125I]-α-bungarotoxin (BTX) (Table 1). In Xenopus oocytes injected with human, recombinant α7 receptor mRNA, AZD0328 activates whole cell currents (Table 2). […] In acutely dissociated rat hippocampal interneurons, AZD0328 elicits rapidly activated, desensitizing whole-cell current (Table 1), consistent with the known properties of rat neuronal α7 receptors. […] AZD0328 modulates synaptic function, consistent with the well-known role of α7 receptors as heteroreceptor modulators of glutamatergic and GABAergic synaptic function.

human hepatocytes = assay: Human hepatocyte incubations; assay type: in vitro ADME; conditions: four separate batches of human hepatocytes
Description: Pyridinyl methylation of AZD0328 was a unique polar metabolite (M2) observed in dog hepatocytes. Other minor hydroxylation/oxidation and glucuronide conjugation products were detected in monkey, dog, rat, and guinea pig hepatocyte incubations and mini-pig hepatic microsome incubations. […] Analysis of plasma and urine samples from either orally or iv dosed rats confirmed N-oxide product of AZD0328 was a main product in the excretion and circulation. The percentage of AZD0328 N-oxide in the plasma from male rats was much higher than from females.

[2] = target: human recombinant α7 receptor (Homo sapiens, UniProt P36544); assay: [3H]-AZ11637326 binding, α7-HEK; parameters: expressed in transfected cells
rhesus monkeys = assay: Spatial delayed response (SDR) task; assay type: in vivo, rhesus monkey
Text: AZD0328 at low doses improved performance in the spatial delayed response test in monkeys. Rhesus monkeys were trained in a spatial delayed response task. In this task, food-motivated monkeys observed one of several spatially-displaced wells being baited with a food reward. After a brief delay during which a shutter is drawn and the wells are covered, the monkey must indicate the position of the baited well to receive the food reward. The performance of groups of monkeys was titrated into a narrow range by changing the number of wells or the duration of the delay. Monkeys were tested extensively to establish baseline performance before being administered drug or vehicle. Intramuscular administration of 0.00048 or 0.0016 mg/kg AZD0328 evoked a sustained increase in the percentage of correct responses monkeys made when compared with responses of vehicle-treated monkeys. […] Higher doses (≧0.016 mg/kg or higher) and lower doses (≦0.00016 mg/kg) had either no effect on monkeys or transiently impaired their performance of the task.
Rhesus monkey were trained in a spatial delayed response task. Middle doses of AZD0328 (0.0016 and 0.00048 mg/kg im) evoked a sustained improvement in rhesus monkey performance, while a higher dose (0.48 mg/kg) and a lower dose (0.000016 mg/kg) transiently impaired performance of the task (Table 2).

guinea pigs = assay: Cardiac repolarisation in the anesthetised guinea pig; assay type: in vivo
Description: Effects of AZD0328 on ventricular repolarisation and intracardiac conduction were investigated in 6 anesthetised and ventilated guinea pigs (Table 3). For the electrophysiological characterisation, monophasic action potentia MAP duration at 90% repolarisation (MAPD90), ventricular conduction velocity (MAP rise time), and atrioventricular (AV) conduction time were recorded during cardiac pacing. AZD0328 had dose-dependent effects on the electrophysiological activities in the guinea pig heart. At the highest dose, resulting in a total plasma concentration of 8.5 μM, MAPD90 and AV conduction time were prolonged by 20% and 13%, respectively. It is concluded that AZD0328 delayed ventricular repolarisation in the anesthetised guinea pig by 10% at a total plasma concentration of 2.4 μM.

[3] = highest dose, total plasma concentration 8.5 μM

T1 sequence (P08183 whole entry): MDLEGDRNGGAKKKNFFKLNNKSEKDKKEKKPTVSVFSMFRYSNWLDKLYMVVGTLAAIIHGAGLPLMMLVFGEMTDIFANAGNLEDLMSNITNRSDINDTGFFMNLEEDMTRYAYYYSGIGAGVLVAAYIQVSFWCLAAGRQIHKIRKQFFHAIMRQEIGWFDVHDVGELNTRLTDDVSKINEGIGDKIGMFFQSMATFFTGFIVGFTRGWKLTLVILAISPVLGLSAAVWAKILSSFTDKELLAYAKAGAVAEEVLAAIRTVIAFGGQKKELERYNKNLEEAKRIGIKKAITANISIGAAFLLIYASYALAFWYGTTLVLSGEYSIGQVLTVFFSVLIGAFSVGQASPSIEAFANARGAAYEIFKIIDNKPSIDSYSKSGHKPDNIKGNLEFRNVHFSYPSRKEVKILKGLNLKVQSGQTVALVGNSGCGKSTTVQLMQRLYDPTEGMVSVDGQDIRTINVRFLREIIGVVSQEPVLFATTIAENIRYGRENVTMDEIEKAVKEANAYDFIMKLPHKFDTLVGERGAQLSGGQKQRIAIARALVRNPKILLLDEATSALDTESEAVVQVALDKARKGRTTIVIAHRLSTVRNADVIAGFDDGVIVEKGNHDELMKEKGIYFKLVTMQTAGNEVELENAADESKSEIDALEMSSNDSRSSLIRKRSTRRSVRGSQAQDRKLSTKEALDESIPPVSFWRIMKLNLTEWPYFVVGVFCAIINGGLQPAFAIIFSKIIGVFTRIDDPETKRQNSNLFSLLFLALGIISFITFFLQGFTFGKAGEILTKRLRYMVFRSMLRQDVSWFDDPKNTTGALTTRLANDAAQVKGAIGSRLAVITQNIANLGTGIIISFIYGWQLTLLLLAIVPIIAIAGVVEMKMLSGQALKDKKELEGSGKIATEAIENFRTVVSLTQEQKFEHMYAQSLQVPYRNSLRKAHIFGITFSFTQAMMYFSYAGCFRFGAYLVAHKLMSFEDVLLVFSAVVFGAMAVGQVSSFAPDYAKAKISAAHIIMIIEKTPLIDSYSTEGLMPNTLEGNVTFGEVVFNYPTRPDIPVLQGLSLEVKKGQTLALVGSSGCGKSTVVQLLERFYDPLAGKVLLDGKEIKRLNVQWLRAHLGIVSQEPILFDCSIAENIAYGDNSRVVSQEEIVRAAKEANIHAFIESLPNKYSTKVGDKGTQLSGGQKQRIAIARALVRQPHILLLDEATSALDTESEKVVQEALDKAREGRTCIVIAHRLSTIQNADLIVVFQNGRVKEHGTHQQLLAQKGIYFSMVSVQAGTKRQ
T2 sequence (P46098 24-478): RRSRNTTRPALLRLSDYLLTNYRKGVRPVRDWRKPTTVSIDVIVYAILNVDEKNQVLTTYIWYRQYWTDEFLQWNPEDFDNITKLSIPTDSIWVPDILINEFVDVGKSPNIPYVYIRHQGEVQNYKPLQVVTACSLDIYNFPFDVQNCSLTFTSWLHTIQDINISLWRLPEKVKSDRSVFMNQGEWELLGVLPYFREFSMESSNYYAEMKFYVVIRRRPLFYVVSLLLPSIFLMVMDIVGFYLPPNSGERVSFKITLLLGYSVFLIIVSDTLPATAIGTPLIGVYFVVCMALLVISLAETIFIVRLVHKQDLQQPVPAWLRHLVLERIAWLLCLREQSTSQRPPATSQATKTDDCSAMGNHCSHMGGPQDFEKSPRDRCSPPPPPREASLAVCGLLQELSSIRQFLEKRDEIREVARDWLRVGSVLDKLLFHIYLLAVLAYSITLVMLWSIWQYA
T2 sequence (O95264 22-441): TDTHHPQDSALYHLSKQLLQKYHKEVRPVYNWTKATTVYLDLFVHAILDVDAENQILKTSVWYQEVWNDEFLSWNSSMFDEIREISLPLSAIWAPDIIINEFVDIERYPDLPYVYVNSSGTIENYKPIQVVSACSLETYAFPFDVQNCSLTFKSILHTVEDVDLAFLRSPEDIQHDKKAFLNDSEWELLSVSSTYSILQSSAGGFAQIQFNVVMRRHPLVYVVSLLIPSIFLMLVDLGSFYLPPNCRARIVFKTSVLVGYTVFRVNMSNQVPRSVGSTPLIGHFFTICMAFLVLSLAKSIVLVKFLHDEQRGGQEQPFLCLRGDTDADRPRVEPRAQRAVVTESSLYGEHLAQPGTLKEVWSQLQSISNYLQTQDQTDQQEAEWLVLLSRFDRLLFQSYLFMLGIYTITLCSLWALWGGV
human recombinant α7 receptor, sequence (P36544 23-502): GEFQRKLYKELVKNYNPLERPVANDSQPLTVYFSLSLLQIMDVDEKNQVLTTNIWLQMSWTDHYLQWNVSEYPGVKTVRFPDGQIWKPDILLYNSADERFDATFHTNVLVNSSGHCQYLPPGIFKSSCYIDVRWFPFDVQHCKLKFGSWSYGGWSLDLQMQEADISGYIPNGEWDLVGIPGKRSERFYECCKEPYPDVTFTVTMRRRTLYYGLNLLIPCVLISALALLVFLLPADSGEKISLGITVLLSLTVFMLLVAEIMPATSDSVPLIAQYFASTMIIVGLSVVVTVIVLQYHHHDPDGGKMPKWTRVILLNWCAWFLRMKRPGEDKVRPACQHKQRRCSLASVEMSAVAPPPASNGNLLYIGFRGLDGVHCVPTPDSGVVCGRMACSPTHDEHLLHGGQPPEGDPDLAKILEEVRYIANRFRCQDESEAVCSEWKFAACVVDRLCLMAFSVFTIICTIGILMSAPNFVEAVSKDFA
α7 receptor, sequence (Q05941 23-502): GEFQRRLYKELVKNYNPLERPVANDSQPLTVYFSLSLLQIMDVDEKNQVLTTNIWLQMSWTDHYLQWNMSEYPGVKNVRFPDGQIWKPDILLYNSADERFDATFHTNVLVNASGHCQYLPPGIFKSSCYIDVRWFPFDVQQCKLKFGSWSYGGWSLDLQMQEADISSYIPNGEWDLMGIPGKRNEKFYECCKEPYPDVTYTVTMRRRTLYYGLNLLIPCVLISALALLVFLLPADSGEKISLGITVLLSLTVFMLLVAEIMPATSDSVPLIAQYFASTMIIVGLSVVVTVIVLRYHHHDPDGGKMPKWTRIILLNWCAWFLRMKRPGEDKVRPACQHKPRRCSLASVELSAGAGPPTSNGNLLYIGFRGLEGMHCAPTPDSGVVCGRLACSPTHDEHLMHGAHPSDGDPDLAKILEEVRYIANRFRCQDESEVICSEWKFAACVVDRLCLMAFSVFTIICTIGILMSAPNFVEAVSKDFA

c1cnc2c(c1)C[C@@]1(CN3CCC1CC3)O2 [AZD0328, (R)-Spiro[1-azabicyclo[2.2.2]octane-3,2′(3′H)-furo[2,3-b]pyridine]]
inhibition of Pgp mediated digoxin transport (Pgp transporter): did not significantly inhibit
decrease of digoxin transport (Pgp transporter; 10.8 μg/mL (50 μM)): 11%
functional potency at α7 versus 5-HT3A/B receptors [1]: equipotent
dose with statistically significant difference from vehicle for retches (ferrets; oral): 5.6 mg/kg
emetic responses (ferrets; oral gavage 5.6, 16.9 or 56.2 mg/kg): emetic responses were present at all doses
time of administration prior to object sampling at which object recognition index was still significantly increased (mice): ≤ 48 h
mutagenicity (Mouse lymphoma): not mutagenic
fEPSP LTP (α7 receptor): 153 % baseline
metabolites in human hepatocyte incubations (human hepatocytes): no metabolites were detected
Ki [2]: 6.4 nM
duration of improved SDR performance after a single dose (rhesus monkeys; four of nine monkeys, middle doses (0.0016 and 0.00048 mg/kg im)): more than one month
higher doses with no effect or transiently impaired SDR performance (rhesus monkeys; rhesus monkeys): ≥ 0.016 mg/kg
lower doses with no effect or transiently impaired SDR performance (rhesus monkeys; rhesus monkeys): ≤ 0.00016 mg/kg
percent correct responses (SDR) (rhesus monkeys; rhesus monkeys, 0.016 mg/kg): non-significant increase
total plasma concentration (guinea pigs; highest dose, iv cumulative bolus): 8.5 µM
prolongation of AV conduction time (guinea pigs; [3]): 13%
prolongation of MAPD90 (guinea pigs; [3]): 20%
NOAEL, guinea pig MAP assay (guinea pigs; in vivo): 1 µM
